Results: US8242054B2, “Plant growth regulator composition” (Snow Brand Seed Co., Ltd., priority 2008, dated 2012)

How the values were obtained:
adzuki bean section [1] = assay: adzuki bean root promotion assay (section immersion treatment, adventitious roots counted); assay type: in vivo; conditions: for Relative value (%): 0/0 ppm group = 100; for Number of roots: 72 h immersion, counted 7 days after immersion
adzuki bean section [2] = assay: as above; assay type: in vivo; conditions: for Relative value (%): 0/0 ppm group = 100; for Ratio to untreated group (%): untreated group = 100
Protocol: An aqueous solution of DL-phenyllactic acid (Sigma-Aldrich Japan) and L-tryptophan (Wako Pure Chemical Industries, Ltd.) was prepared so that the total concentration of the compounds was 400 ppm and adjusted to pH 7 with hydrochloric acid, and the solution was subjected to an adzuki bean root promotion assay (Itagaki et al. 2003. Biological activities and structure-activity relationship of substitution compounds of N-[2-(3-indolyl)ethyl]succinamic acid and N-[2-(1-naphthyl)ethyl]succinamic acid, derived from a new category of root-promoting substance, N-(phenethyl) succinamic acid analogs. Plant Soil 255: 67-75). The base of an adzuki section was immersed in the test solution for 72 hours, and adventitious roots generated 7 days after immersion were counted. The repetition number was 5.
To study the cooperation effect of phenyllactic acid and aromatic amino acids other than L-tryptophan, each of 1 mM of DL-phenyllactic acid (Sigma-Aldrich Japan), L-tryptophan (Wako Pure Chemical Industries, Ltd.), L-phenylalanine (Wako Pure Chemical Industries, Ltd.), and L-tyrosine (Wako Pure Chemical Industries, Ltd.), and aqueous solutions obtained by adding the amino acids to DL-phenyllactic acid were prepared, and subjected to the adzuki bean root promotion assay in the same way as in Example 1.
To compare effects of combinations of tryptophan enantiomers and phenyllactic acid enantiomers, aqueous solutions of 400 ppm of L-tryptophan, D-tryptophan (Wako Pure Chemical Industries, Ltd.), L-phenyllactic acid (Sigma-Aldrich Japan), and D-phenyllactic acid (Sigma-Aldrich Japan) were prepared. Separately, aqueous solutions of 200 ppm of each of the tryptophan enantiomers and 200 ppm of each of the […] enantiomers were prepared and subjected to the adzuki bean root promotion assay in the same way as in Example 1. […]

plants = conditions: background art; cited from earlier work
[3] = Table 3: L-tryptophan 0 ppm, DL-phenyllactic acid 20 ppm
[4] = Table 4: each component present at 1 mM
[5] = Table 5: single enantiomer 400 ppm
[6] = Table 3: L-tryptophan 1200 ppm, DL-phenyllactic acid 0 ppm

Row | SMILES | Number of roots (adzuki bean section [2]; [4]) | Ratio to untreated group (%) (adzuki bean section [2]; [4]) | Number of roots (adzuki bean section [2]; [5]) | Relative value (%) (adzuki bean section [2]; [5]) | other results
1 | O=C(O)C(O)Cc1ccccc1 (racemic) [DL-phenyllactic acid] | 18.8 | 132 | – | – | Relative value (%) (adzuki bean section [1]; [3]): 107%; Number of roots (adzuki bean section [1]; [3]): 11.6; root promoting effect (in words) (adzuki bean section [2]; Table 1, only DL-phenyllactic acid): slight root promoting effect; Relative value (%) (adzuki bean section [2]; Table 1: L-tryptophan 0 ppm, DL-phenyllactic acid 400 ppm): 137%; Number of roots (adzuki bean section [2]; Table 1: L-tryptophan 0 ppm, DL-phenyllactic acid 400 ppm, 72 h immersion, counted 7 days after immersion): 22.4; Relative value (%) (adzuki bean section [2]; Table 2: L-tryptophan 0 ppm, DL-phenyllactic acid 400 ppm): 268%; Number of roots (adzuki bean section [2]; Table 2: L-tryptophan 0 ppm, DL-phenyllactic acid 400 ppm, 72 h immersion, counted 7 days after immersion): 32.2; Ratio to group treated with only DL-phenyllactic acid (%) (adzuki bean section [2]; Table 4: each component present at 1 mM, 1 mM DL-phenyllactic acid only = 100): 100%
2 | O=C(O)[C@@H](O)Cc1ccccc1 [D-phenyllactic acid] | – | – | 27.6 | 192 | –
3 | N[C@H](Cc1c[nH]c2ccccc12)C(=O)O [D-tryptophan] | – | – | 24.2 | 168 | –
4 | N[C@@H](Cc1ccccc1)C(=O)O [L-phenylalanine] | 16.6 | 117 | – | – | –
5 | O=C(O)[C@@H](O)Cc1ccccc1 [L-phenyllactic acid] | – | – | 19.4 | 135 | –
6 | N[C@@H](Cc1c[nH]c2ccccc12)C(=O)O [L-tryptophan] | 19.2 | 135 | 22.2 | 154 | Relative value (%) (adzuki bean section [1]; [6]): 139%; Number of roots (adzuki bean section [1]; [6]): 15.0; Relative value (%) (adzuki bean section [2]; Table 1: L-tryptophan 400 ppm, DL-phenyllactic acid 0 ppm): 113%; Number of roots (adzuki bean section [2]; Table 1: L-tryptophan 400 ppm, DL-phenyllactic acid 0 ppm, 72 h immersion, counted 7 days after immersion): 18.6; Relative value (%) (adzuki bean section [2]; Table 3: L-tryptophan 400 ppm, DL-phenyllactic acid 0 ppm): 98%; Number of roots (adzuki bean section [2]; Table 3: L-tryptophan 400 ppm, DL-phenyllactic acid 0 ppm, 72 h immersion, counted 7 days after immersion): 10.6
7 | N[C@@H](Cc1ccc(O)cc1)C(=O)O [L-tyrosine] | 13.6 | 96 | – | – | –
8 | O=C(O)C(O)Cc1ccccc1 (stereo not shown) [phenyllactic acid, 3-phenyllactic acid] | – | – | – | – | root promoting effect on plants (in words) (plants): the effect is weak
